Data as given in patent US7528223B2 (priority 2002, dated 2009).

Assays:
[1] = tested on: peptide-specific T cells in patient-derived peripheral blood mononuclear cells (PBMC); assay type: cell-based, human (HLA-A*0201 HCV positive patient); settings: for Counts-mean size >10 / Counts-mean size >25 / Counts-mean size >75: IFN-g ELIspot spot counts, Patient, Plate 11_01_03, patient-derived PBMC; for Counts-mean size >10: spot size >10; for Counts-mean size >25: spot size >25; for Counts-mean size >75: spot size >75; for number of peptide-specific T cells (IFN-g Elispot): PBMC of patient cured of chronic HCV infection, frozen 1996 (Table 5, FIG. 3)
Description: Since those ncORF peptides are immunogenic in tg-mice, the present peptides were ananlysed in an ELIspot assay on PBL's from HCV+ patients.
Patient-derived peripheral blood mononuclear cells (PBMC) frozen in 1996 were thawed to perform an IFN-g Elispot assay with the following peptides: […]

[2] = tested on: peptide-specific IFN-γ producing cells; parameters: species or system C57B1/6 mice; settings: mouse, in vivo, sc

Sequence: FMLGALLPI [Ipep 1373]
- Counts-mean size >10 [1]: 159
- Counts-mean size >25 [1]: 86
- Counts-mean size >75 [1]: 3
- number of peptide-specific T cells (IFN-g Elispot) [1]: high numbers of peptide-specific T cells

Sequence: TLWAGPLLKV [Ipep 1371]
- Counts-mean size >10 [1]: 24
- Counts-mean size >25 [1]: 15
- Counts-mean size >75 [1]: 2
- number of peptide-specific T cells (IFN-g Elispot) [1]: high numbers of peptide-specific T cells

Sequence: LLLQRWALV [Ipep 1372]
- Counts-mean size >10 [1]: 43
- Counts-mean size >25 [1]: 36
- Counts-mean size >75 [1]: 13
- number of peptide-specific T cells (IFN-g Elispot) [1]: high numbers of peptide-specific T cells

Sequence: SSIAAQDAL [p1600]
- peptide-specific IFN-γ spots (ELIspot) [2]: do not show any specific spots

Sequence: VTILNLALL [p1664]
- peptide-specific IFN-γ spots (ELIspot) [2]: specifically release IFN-γ

Sequence: TMLYNKMEF [p1569]
- peptide-specific IFN-γ spots (ELIspot) [2]: specifically release IFN-γ

Sequence: IASNENMETM [p1574, reference compound]
- peptide-specific IFN-γ spots (ELIspot) [2]: do not show any specific spots
